We go through 15 molecules from patent US11241410B2, “Method and compound for the treatment of covid-19” (priority 2020, dated 2022).

Structures are written as SMILES.

The subject of one data set is HCoV. The following applies: Huh7, 4 days, 96 well, reference compound; cited from earlier work.
The next data set concerns Huh7. The following applies: Huh7, 4 days, CellTiter Glo, reference compound; cited from earlier work.
The target in another data set is T1, SARS-CoV-2 main protease (Severe acute respiratory syndrome coronavirus 2, UniProt P0DTD1).
T1 construct: also MProtease (SARS-CoV-2 main protease)
The following applies: auto dock; cited from earlier work.

Another data set has as its system HIV. Put plainly: HIV in vitro tests (Table 1). The format is cell-based. To be noted: HIV in vitro tests; read-out: EC50.
The next data set concerns the target T2, Mpro (Severe acute respiratory syndrome coronavirus 2, UniProt P0DTD1).
T2 construct: also MProtease (SARS-CoV-2 main protease)
The following applies: Mpro and substrate, 40 min, 384 well; cited from earlier work.

Another data set deals with COVID-19. The following applies: after one month; control arm 12.8%, difference not statistically significant; cited from earlier work.

Turning to `CCN(CC)CCCC(C)Nc1ccnc2cc(Cl)ccc12` (centres unmarked) [Chloroquine phosphate], the EC50 in the data set on HCoV was 3.45 µM. Also, the CC50 in the data set on Huh7 was 40.8 µM.
As for `CCN(CC)CCCC(C)Nc1ccnc2cc(Cl)ccc12` (centres unmarked) [Chloroquine], at SARS-CoV-2 main protease, the “Dissociation Constant” value is listed as 5.0E−05, the SMINA score is −5.4 and the Vina score is given as −5.9.
For the molecule `CC(C)c1nc(CN(C)C(=O)N[C@@H](CCN2CCOCC2)C(=O)N[C@H](CC[C@H](Cc2ccccc2)NC(=O)OCc2cncs2)Cc2ccccc2)cs1` [Cobicistat], at SARS-CoV-2 main protease, the “Dissociation Constant” value was 5.7E−06, the SMINA score was −7.2 and the Vina score is listed as −7.2.
Take `CCN(CCO)CCCC(C)Nc1ccnc2cc(Cl)ccc12` (centres unmarked) [Hydroxychloroquine]: at SARS-CoV-2 main protease, the “Dissociation Constant” value was 2.3E−05, the SMINA score is −6.4 and the Vina score was −6.0.
Consider `CC(C)(C)NC(=O)[C@@H]1CN(Cc2cccnc2)CCN1C[C@@H](O)C[C@@H](Cc1ccccc1)C(=O)N[C@H]1c2ccccc2C[C@H]1O` [Indinivir], for which the EC50 in the data set on HIV worked out at 5 nM.
As for `Cc1cccc(C)c1OCC(=O)N[C@@H](Cc1ccccc1)[C@@H](O)C[C@H](Cc1ccccc1)NC(=O)[C@H](C(C)C)N1CCCNC1=O` [Lopinavir], on SARS-CoV-2 main protease, the “Dissociation Constant” value is reported as 3.4E−06, the SMINA score is listed as −7.5 and the Vina score is −7.4. For the same molecule, the EC50 on Mpro is 108 µM.
For `Cc1ccnc2c1NC(=O)c1cccnc1N2C1CC1` [Neverepin], in the data set with HIV, the EC50 is 48 nM.
Take `CCOC(=O)C1=C[C@@H](OC(CC)CC)[C@H](NC(C)=O)[C@@H](N)C1` [Oseltamivir]: at SARS-CoV-2 main protease, the “Dissociation Constant” value is on record as 1.8E−05, the SMINA score is listed as −6.3 and the Vina score is recorded as −6.5.
On to `CCC(CC)COC(=O)[C@H](C)N[P@](=O)(OC[C@H]1O[C@@](C#N)(c2ccc3c(N)ncnn23)[C@H](O)[C@@H]1O)Oc1ccccc1` [Remdesivir], for which the CC50 in the data set on Huh7 was 28.9 µM. For the same molecule, the “patients who had died” value in the data set with COVID-19 was 13.9%.
On to `CC(C)c1nc(CN(C)C(=O)N[C@H](C(=O)N[C@@H](Cc2ccccc2)C[C@H](O)[C@H](Cc2ccccc2)NC(=O)OCc2cncs2)C(C)C)cs1` [Retinovir], for which the EC50 in the data set on HIV turned out to be 2 nM.
Take `CC(C)c1nc(CN(C)C(=O)N[C@H](C(=O)N[C@@H](Cc2ccccc2)C[C@H](O)[C@H](Cc2ccccc2)NC(=O)OCc2cncs2)C(C)C)cs1` [Ritonavir]: at SARS-CoV-2 main protease, the “Dissociation Constant” value is given as 2.5E−06, the SMINA score is recorded as −7.7 and the Vina score is recorded as −7.5.
Regarding `CC(C)(C)NC(=O)[C@@H]1C[C@@H]2CCCC[C@@H]2CN1C[C@@H](O)[C@H](Cc1ccccc1)NC(=O)[C@H](CC(N)=O)NC(=O)c1ccc2ccccc2n1` [Saquinovir], the EC50 in the data set on HIV was determined as 1.2 nM.
With `CCOC(=O)c1c(CSc2ccccc2)n(C)c2cc(Br)c(O)c(CN(C)C)c12` [Umifenovir], on SARS-CoV-2 main protease, the “Dissociation Constant” value is 2.2E−05, the SMINA score was −6.0 and the Vina score is −6.4.
Turning to `O=c1[nH]cnc2c1ncn2[C@H]1CC[C@@H](CO)O1` [ddI], in the data set with HIV, the EC50 was determined as 5.6 nM.
In the case of `Nc1ccn([C@H]2CC[C@@H](CO)O2)c(=O)n1` [ddc], in the data set on HIV, the EC50 amounted to 1 nM.

In general, EC50 refers to the concentration needed to bring the measured effect to its halfway point.
